Measured values reported in US8802353B2, “Compound for resist and radiation-sensitive composition specification” (Mitsubishi Gas Chemical Company, Inc., priority 2004, dated 2014).

How the values were obtained:
Format in all cases: physicochemical
[1] = Ultraviolet-visible absorption spectra, absorptivity coefficient at 248 nm; settings: 0.01 g/L methanol solution
Protocol: From the ultraviolet-visible absorption spectra of a 0.01 g/L methanol solution of each of Compounds 103, 105 and 108 measured by an autographic spectrophotometer “UV-3100PC” manufactured by Shimadzu Corporation, the absorptivity coefficient at 248 nm of each compound was determined. The absorptivity coefficient was 43.4 L/(cm·g) for Compound 103, 47.4 L/(cm·g) for Compound 105, and 16.9 L/(cm·g) for Compound 108. The absorptivity coefficient is sufficiently larger than 15 L/(cm·g) in any of the compounds, to indicate that the compounds, particularly Compounds 103 and 105, are useful as the raw material of the compound B for forming shade masks. The compounds B produced from these compounds and the radiation-sensitive composition containing such compounds B also have a high absorptivity and are useful for forming shade masks.

[2] = Glass transition temperature, crystallization temperature and quantity of crystallization heat (DSC); settings: for Glass transition temperature: 20° C./min, nitrogen gas flow; for Glass transition temperature-Crystallization temperature: rating of the difference
Protocol: A sample (about 10 mg) placed in a non-sealed aluminum container was heated to a temperature higher than the melting point at a temperature rising rate of 20° C./min in a nitrogen gas flow (50 ml/min). After being rapidly cooled, the sample was again heated to a temperature higher than the melting point at a temperature rising rate of 20° C./min in a nitrogen gas flow (30 ml/min). After being rapidly cooled, the sample was again heated to 400° C. at a temperature rising rate of 20° C./min in a nitrogen gas flow (30 ml/min), to conduct a differential scanning calorimetric analysis using DSC/TA-50WS manufactured by Shimadzu Corporation. The middle point of the region at which the base line turned discontinuous (the point at which the specific heat reduced to half) was taken as the glass transition temperature (Tg) and the temperature of the exothermic peak after the discontinuous region was taken as the crystallization temperature. The quantity of crystallization heat was determined by the area of the region which was surrounded by the exothermic peak and the base line. The sample was rated A when meeting Tg≧130° C., and rated C when meeting Tg≦130° C. Also, the sample was rated A when meeting (glass transition temperature)−(crystallization temperature)≧70° C., and rated C when meeting (glass transition temperature)-(crystallization temperature)<70° C.

[3] = Solubility in safety solvent; settings: 23° C.; PGMEA, PGME, ethyl lactate, butyl acetate, methyl 3-methoxypropionate, ethyl propionate
Protocol: The solubility of the compound B was tested at 23° C. using propylene glycol monomethyl ether acetate, propylene glycol monomethyl ether, ethyl lactate, butyl acetate, methyl 3-methoxypropionate and ethyl propionate. The sample was rated A when dissolved in any one of the above solvents in a concentration of 5 wt % or more, rated B when dissolved in a concentration of 0.1 to 5 wt %, and rated C when dissolved only in a concentration of less than 0.1 wt %.

[4] = Adhesion to silicon substrate; set-up: key: rated A when the film was not peeled from the silicon wafer; rated C when peeled off; settings: silicon wafer surface-treated with silane coupling agent
Protocol: The resist film formed in (2-2) was tested for its adhesion to the silicon wafer which was surface-treated with a silane coupling agent. The sample was rated A when the film was not peeled from the silicon wafer, and rated C when peeled off.

[5] = Film-forming property (spin-coated film on silicon wafer); set-up: key: rated C when the film was clouded or its surface was roughened; rated B when the film was partly clouded or roughened; rated A when the film had a good surface flatness without causing clouding; settings: 3% by weight solution spin-coated, 110° C. 3 min
Description: A 3% by weight solution of the compound B or a mixture (compound B and polyphenol A) in PGME/PE (1/2 by weight) or acetone when not dissolved in PGME/PE was spin-coated on a silicon wafer which had been surface-treated with a silane coupling agent, to form a resist film with a thickness of about 0.05 μm.

For Cc1cc(C(c2ccc3ccc(C(c4cc(C)c(O)c(C)c4C)c4cc(C)c(O)c(C)c4C)cc3c2)c2cc(C)c(O)c(C)c2C)c(C)c(C)c1O [Compound 105], the “absorptivity coefficient at 248 nm” value [1] was 47.4 L/cm/g, the “Glass transition temperature Rating” value ([2]; DSC) was “A (rated A when meeting Tg≧130° C.)” and the Glass transition temperature ([2]; DSC) was 156 °C. For the same molecule, the “Glass transition temperature-Crystallization temperature” value [2] was “A (rated A when meeting (glass transition temperature)−(crystallization temperature)≧70° C.)”.
In the case of Cc1cc(O)c(C(C)C)cc1C(c1ccc2cc(C(c3cc(C(C)C)c(O)cc3C)c3cc(C(C)C)c(O)cc3C)ccc2c1)c1cc(C(C)C)c(O)cc1C [Compound 103], the “absorptivity coefficient at 248 nm” value [1] is reported as 43.4 L/cm/g, the “Glass transition temperature Rating” value ([2]; DSC) is reported as “C (rated C when meeting Tg≦130° C.)” and the Glass transition temperature ([2]; DSC) is reported as 116 °C. For the same molecule, the Crystallization temperature ([2]; DSC, exothermic peak) was 190 °C and the “Glass transition temperature-Crystallization temperature” value [2] was “A (rated A when meeting (glass transition temperature)−(crystallization temperature)≧70° C.)”.
For Cc1cc(C(c2cc(C(c3cc(C)c(O)c(C)c3C)c3cc(C)c(O)c(C)c3C)cc(C(c3cc(C)c(O)c(C)c3C)c3cc(C)c(OC(C)OC4CCCCC4)c(C)c3C)c2)c2cc(C)c(O)c(C)c2C)c(C)c(C)c1O (stereo not shown) [Compound 119], the “Solubility to safety solvent” value [3] was “A (rated A when dissolved in any one of the above solvents in a concentration of 5 wt % or more)”, the “Adhesion to silicon substrate” value [4] was “A” and the film-forming property [5] was “A”.
In the case of Cc1cc(C(c2ccc(-c3cccc(-c4ccc(C(c5cc(C)c(O)cc5C)c5cc(C)c(OC(C)OC6CCCCC6)cc5C)cc4)c3)cc2)c2cc(C)c(O)cc2C)c(C)cc1O (stereo not shown) [Compound 115], the “Solubility to safety solvent” value [3] is reported as “A (rated A when dissolved in any one of the above solvents in a concentration of 5 wt % or more)”, the “Adhesion to silicon substrate” value [4] is reported as “A” and the film-forming property [5] is reported as “A”.
For Cc1cc(C(c2cc(C(c3cc(C)c(OC(=O)OC(C)(C)C)c(C)c3C)c3cc(C)c(OC(=O)OC(C)(C)C)c(C)c3C)cc(C(c3cc(C)c(OC(=O)OC(C)(C)C)c(C)c3C)c3cc(C)c(OC(=O)OC(C)(C)C)c(C)c3C)c2)c2cc(C)c(OC(=O)OC(C)(C)C)c(C)c2C)c(C)c(C)c1OC(=O)OC(C)(C)C [Compound 117], the “Solubility to safety solvent” value [3] was “A (rated A when dissolved in any one of the above solvents in a concentration of 5 wt % or more)”, the “Adhesion to silicon substrate” value [4] was “A” and the film-forming property [5] was “A”.
In the case of Cc1cc(C(c2cc(C(c3cc(C)c(O)c(C)c3C)c3cc(C)c(O)c(C)c3C)cc(C(c3cc(C)c(O)c(C)c3C)c3cc(C)c(O)c(C)c3C)c2)c2cc(C)c(O)c(C)c2C)c(C)c(C)c1O [Compound 108], the “absorptivity coefficient at 248 nm” value [1] is reported as 16.9 L/cm/g, the “Glass transition temperature Rating” value ([2]; DSC) is reported as “A (rated A when meeting Tg≧130° C.)” and the Glass transition temperature ([2]; DSC) is reported as 125 °C. For the same molecule, the “Glass transition temperature-Crystallization temperature” value [2] was “A (rated A when meeting (glass transition temperature)−(crystallization temperature)≧70° C.)”.
With CCOC(C)Oc1c(C)cc(C(c2ccc3cc(C(c4cc(C)c(O)c(C)c4C)c4cc(C)c(O)c(C)c4C)ccc3c2)c2cc(C)c(O)c(C)c2C)c(C)c1C (stereo not shown) [Compound 111] the “Solubility to safety solvent” value [3] was “A (rated A when dissolved in any one of the above solvents in a concentration of 5 wt % or more)”, the “Adhesion to silicon substrate” value [4] was “A” and the film-forming property [5] was “A”.
